Measurements reported in PubChem BioAssay (NCI).
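A five-concentration, 48-hour dose response in 96-well plates underlies each endpoint, interpolated linearly between surrounding concentrations. GI50 marks 50% less growth. TGI marks complete inhibition of growth.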 *1 amine or outer side, *2 acyl side, *3 side chain or, on linkers, in order; H or OH if unused. Where a SMILES comes first, the peptide text is derived from it. Bridges are numbered along the chain shown (N, C = ends). [ ]: non-standard residue; d: D form. The star is where a group is joined. ξ: configuration not given here. ξOrn(4,5-diOH) = O=C(C(CC(O)C(O)N[*:3])N[*:1])[*:2]; ξhTyr(βξ-OH,γξ-OH) = NC(C(=O)O)C(O)C(O)c1ccc(O)cc1; ξPro(3ξ-OH,4ξ-Me) = CC1CNC(C(=O)O)C1O; X22 = CCCCC/C=C/C/C=C\CCCCCCCC(=O)*; Hyp = O=C(O)[CH]1C[CH](O)CN1

Experiments:
Assay in all cases: DTP human tumour cell line panel, 48 h
M14 melanoma = system: M14 melanoma
OVCAR-3 ovarian = system: OVCAR-3 ovarian
SNB-19 CNS = system: SNB-19 CNS
A498 renal = system: A498 renal
NCI/ADR-RES ovarian = system: NCI/ADR-RES ovarian
MOLT-4 leukemia = system: MOLT-4 leukemia
HL-60(TB) leukemia = system: HL-60(TB) leukemia
HT29 colon = system: HT29 colon
HCC-2998 colon = system: HCC-2998 colon
NCI-H460 lung = system: NCI-H460 lung
SN12C renal = system: SN12C renal
SNB-75 CNS = system: SNB-75 CNS
OVCAR-8 ovarian = system: OVCAR-8 ovarian
SF-295 CNS = system: SF-295 CNS
K-562 leukemia = system: K-562 leukemia
A549 NSCLC = system: A549 NSCLC
NCI-H23 lung = system: NCI-H23 lung
HCT-116 colon = system: HCT-116 colon
MDA-MB-435 = system: MDA-MB-435
NCI-H226 lung = system: NCI-H226 lung
TK-10 renal = system: TK-10 renal
COLO 205 colon = system: COLO 205 colon
SK-MEL-2 melanoma = system: SK-MEL-2 melanoma
EKVX NSCLC = system: EKVX NSCLC
PC-3 prostate = system: PC-3 prostate
SR leukemia = system: SR leukemia
HOP-92 NSCLC = system: HOP-92 NSCLC
IGROV1 ovarian = system: IGROV1 ovarian
MALME-3M melanoma = system: MALME-3M melanoma
LOX IMVI melanoma = system: LOX IMVI melanoma
CCRF-CEM leukemia = system: CCRF-CEM leukemia
UO-31 renal = system: UO-31 renal
CAKI-1 renal = system: CAKI-1 renal
SF-539 CNS = system: SF-539 CNS
SK-MEL-28 melanoma = system: SK-MEL-28 melanoma
MDA-MB-231 breast = system: MDA-MB-231 breast
SW-620 colon = system: SW-620 colon
UACC-62 melanoma = system: UACC-62 melanoma
UACC-257 melanoma = system: UACC-257 melanoma
ACHN renal = system: ACHN renal
OVCAR-5 ovarian = system: OVCAR-5 ovarian
U251 CNS = system: U251 CNS
HCT-15 colon = system: HCT-15 colon
SK-MEL-5 melanoma = system: SK-MEL-5 melanoma
HS 578T breast = system: HS 578T breast
OVCAR-4 ovarian = system: OVCAR-4 ovarian
RXF 393 renal = system: RXF 393 renal
786-0 renal = system: 786-0 renal
NCI-H522 lung = system: NCI-H522 lung
BT-549 breast = system: BT-549 breast
SK-OV-3 ovarian = system: SK-OV-3 ovarian
HOP-62 NSCLC = system: HOP-62 NSCLC
KM12 colon = system: KM12 colon
SF-268 CNS = system: SF-268 CNS
RPMI-8226 leukemia = system: RPMI-8226 leukemia
MCF7 breast = system: MCF7 breast

Compound CN(C)c1ccc(/C=N/N=C(\C#N)[S][Sn]([Cl])([c]2ccccc2)[c]2ccccc2)cc1 has a GI50 (M14 melanoma) of 1720 nM, a TGI (M14 melanoma) of 3380 nM and a GI50 (OVCAR-3 ovarian) of 1300 nM. It also gave a TGI (OVCAR-3 ovarian) of 2590 nM, a GI50 (SNB-19 CNS) of 1990 nM and a TGI (SNB-19 CNS) of 3650 nM. The GI50 (A498 renal) was 1960 nM, the TGI (A498 renal) was 3710 nM and the GI50 (NCI/ADR-RES ovarian) was 2010 nM. For the same compound, the TGI (NCI/ADR-RES ovarian) was 4760 nM, the GI50 (MOLT-4 leukemia) was 876 nM and the TGI (MOLT-4 leukemia) was 5320 nM. The GI50 (HL-60(TB) leukemia) was 548 nM, the TGI (HL-60(TB) leukemia) was 5160 nM and the GI50 (HT29 colon) was 2080 nM. For the same compound, the TGI (HT29 colon) was 4180 nM, the GI50 (HCC-2998 colon) was 1280 nM and the TGI (HCC-2998 colon) was 2610 nM. For the same compound, the GI50 (NCI-H460 lung) was 2180 nM, the TGI (NCI-H460 lung) was 4750 nM and the GI50 (SN12C renal) was 1590 nM. The TGI (SN12C renal) was 3120 nM, the GI50 (SNB-75 CNS) was 1070 nM and the TGI (SNB-75 CNS) was 2360 nM. It also gave a GI50 (OVCAR-8 ovarian) of 2150 nM, a TGI (OVCAR-8 ovarian) of 4910 nM and a GI50 (SF-295 CNS) of 2290 nM. The TGI (SF-295 CNS) was 5480 nM, the GI50 (K-562 leukemia) was 339 nM and the TGI (K-562 leukemia) was 3550 nM. It also gave a GI50 (A549 NSCLC) of 2840 nM, a TGI (A549 NSCLC) of 9050 nM and a GI50 (NCI-H23 lung) of 1440 nM. For the same compound, the TGI (NCI-H23 lung) was 3210 nM, the GI50 (HCT-116 colon) was 1320 nM and the TGI (HCT-116 colon) was 2630 nM. It also gave a GI50 (MDA-MB-435) of 1500 nM, a TGI (MDA-MB-435) of 3010 nM and a GI50 (NCI-H226 lung) of 1820 nM. The TGI (NCI-H226 lung) was 3460 nM, the GI50 (TK-10 renal) was 1460 nM and the TGI (TK-10 renal) was 2800 nM. For the same compound, the GI50 (COLO 205 colon) was 1640 nM, the TGI (COLO 205 colon) was 3520 nM and the GI50 (SK-MEL-2 melanoma) was 1740 nM. For the same compound, the TGI (SK-MEL-2 melanoma) was 3430 nM, the GI50 (EKVX NSCLC) was 1670 nM and the TGI (EKVX NSCLC) was 4120 nM. It also gave a GI50 (PC-3 prostate) of 2940 nM, a TGI (PC-3 prostate) of 8380 nM and a GI50 (SR leukemia) of 1570 nM. For the same compound, the TGI (SR leukemia) was 8570 nM, the GI50 (HOP-92 NSCLC) was 1420 nM and the TGI (HOP-92 NSCLC) was 2870 nM. For the same compound, the GI50 (IGROV1 ovarian) was 1990 nM, the TGI (IGROV1 ovarian) was 4630 nM and the GI50 (MALME-3M melanoma) was 1740 nM. The TGI (MALME-3M melanoma) was 3600 nM, the GI50 (LOX IMVI melanoma) was 1040 nM and the TGI (LOX IMVI melanoma) was 2310 nM. The GI50 (CCRF-CEM leukemia) was 281 nM, the TGI (CCRF-CEM leukemia) was 1050 nM and the GI50 (UO-31 renal) was 1580 nM. It also gave a TGI (UO-31 renal) of 3080 nM, a GI50 (CAKI-1 renal) of 1270 nM and a TGI (CAKI-1 renal) of 2560 nM. It also gave a GI50 (SF-539 CNS) of 1700 nM, a TGI (SF-539 CNS) of 3300 nM and a GI50 (SK-MEL-28 melanoma) of 1480 nM. For the same compound, the TGI (SK-MEL-28 melanoma) was 2930 nM, the GI50 (MDA-MB-231 breast) was 1540 nM and the TGI (MDA-MB-231 breast) was 3190 nM. For the same compound, the GI50 (SW-620 colon) was 853 nM, the TGI (SW-620 colon) was 2450 nM and the GI50 (UACC-62 melanoma) was 1410 nM. It also gave a TGI (UACC-62 melanoma) of 2870 nM, a GI50 (UACC-257 melanoma) of 1520 nM and a TGI (UACC-257 melanoma) of 2950 nM. The GI50 (ACHN renal) was 1720 nM, the TGI (ACHN renal) was 3200 nM and the GI50 (OVCAR-5 ovarian) was 1590 nM. The TGI (OVCAR-5 ovarian) was 3240 nM, the GI50 (U251 CNS) was 1780 nM and the TGI (U251 CNS) was 3200 nM. It also gave a GI50 (HCT-15 colon) of 1260 nM, a TGI (HCT-15 colon) of 2730 nM and a GI50 (SK-MEL-5 melanoma) of 1660 nM. It also gave a TGI (SK-MEL-5 melanoma) of 3370 nM, a GI50 (HS 578T breast) of 2700 nM and a TGI (HS 578T breast) of 9190 nM. It also gave a GI50 (OVCAR-4 ovarian) of 1320 nM, a TGI (OVCAR-4 ovarian) of 2630 nM and a GI50 (RXF 393 renal) of 1380 nM. The TGI (RXF 393 renal) was 2720 nM, the GI50 (786-0 renal) was 1480 nM and the TGI (786-0 renal) was 2830 nM. It also gave a GI50 (NCI-H522 lung) of 127 nM, a TGI (NCI-H522 lung) of 369 nM and a GI50 (BT-549 breast) of 1570 nM. It also gave a TGI (BT-549 breast) of 3040 nM, a GI50 (SK-OV-3 ovarian) of 2780 nM and a GI50 (HOP-62 NSCLC) of 2630 nM. For the same compound, the TGI (HOP-62 NSCLC) was 6020 nM, the GI50 (KM12 colon) was 1800 nM and the TGI (KM12 colon) was 3940 nM. For the same compound, the GI50 (SF-268 CNS) was 1510 nM, the TGI (SF-268 CNS) was 3060 nM and the GI50 (RPMI-8226 leukemia) was 1430 nM. It also gave a TGI (RPMI-8226 leukemia) of 5150 nM, a GI50 (MCF7 breast) of 283 nM and a TGI (MCF7 breast) of 1350 nM.

In the case of CCCCC/C=C/C/C=C\CCCCCCCC(=O)NC1CC(O)C(O)NC(=O)C2C(O)C(C)CN2C(=O)C(C(C)O)NC(=O)C(C(O)C(O)c2ccc(O)cc2)NC(=O)C2CC(O)CN2C(=O)C(C(C)O)NC1=O (stereo not drawn) (X22-[ξOrn(4,5-diOH)]T[Hyp][ξhTyr(βξ-OH,γξ-OH)]T[ξPro(3ξ-OH,4ξ-Me)]; lactam 1-C; configuration not given here), the TGI (NCI-H23 lung) is reported as > 100000 nM, the TGI (HOP-92 NSCLC) is reported as > 100000 nM and the TGI (UACC-257 melanoma) is reported as > 100000 nM. For the same compound, the TGI (BT-549 breast) was > 100000 nM.
